Test results taken from US20250115654A1, “PHARMACEUTICAL COMPOSITION OF GLP-1 RECEPTOR AND GIP RECEPTOR DUAL AGONIST, AND USE THEREOF” (FUJIAN SHENGDI PHARMACEUTICAL CO., LTD., priority 2021, published 2025).
Numbered stars: 1 amine (or outer) side, 2 acyl side, 3 side chain; on linkers, the order of the positions; unused ones are H or OH. Square brackets hold non-standard residues; d marks the D form. Side chains are listed from the residue outwards. Peptide text beside a SMILES is read from it. * marks the point of attachment. C20 diacid = O=C(O)CCCCCCCCCCCCCCCCCCC(=O)*; γGlu = O=C(O)[C@H](CCC(=O)[*:2])N[*:1]; AEEA = NCCOCCOCC(=O)O; Aib = CC(C)(N)C(=O)O

What was measured:
[1] = target: human GLP-1R (Homo sapiens, UniProt P43220); assay: Agonist activity against GLP-1R, cAMP HTRF in CHO-K1/GLP-1R/CRE-luc stable cells; details: Activity against human GLP-1R (EC50 nM), Table 6 run
Sequence of human GLP-1R (P43220 24-463): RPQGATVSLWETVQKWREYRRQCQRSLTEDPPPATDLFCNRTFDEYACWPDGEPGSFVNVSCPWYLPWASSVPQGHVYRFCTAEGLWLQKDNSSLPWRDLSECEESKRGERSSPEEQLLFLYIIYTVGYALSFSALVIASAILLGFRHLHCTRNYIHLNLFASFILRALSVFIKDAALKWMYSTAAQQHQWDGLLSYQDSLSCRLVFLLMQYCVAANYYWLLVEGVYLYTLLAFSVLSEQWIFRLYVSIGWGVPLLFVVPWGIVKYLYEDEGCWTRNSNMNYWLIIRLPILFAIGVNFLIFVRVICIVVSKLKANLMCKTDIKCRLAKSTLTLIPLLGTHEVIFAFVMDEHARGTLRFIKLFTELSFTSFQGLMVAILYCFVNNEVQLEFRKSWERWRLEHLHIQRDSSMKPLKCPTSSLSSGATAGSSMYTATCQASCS

[2] = system: DIO mice; assay: Food intake of DIO (diet-induced obesity) mice; type: in vivo, C57BL/6 mice
Method: High-fat food-induced-obesity male C57BL/6 mice (weighing 35-55 g, aged 10-12 weeks, purchased from Shanghai Jiesijie Laboratory Animal Co., Ltd.) were tested. […] According to the experimental design, the body weight of each mouse was measured and recorded on day 0, day 3, day 6, and so on to day 27, the average body weight of each group of mice was calculated, and body weight change curves were plotted by taking the body weight on the first day as the standard. At the end, the fat and other visceral organs of each part of the mice were taken out and weighed, and the viscera/brain ratio for fat in each part of each mouse was calculated. The effect of the drug on the fat was determined by comparing the change in the viscera/brain ratio for fat of different parts of each group of mice.
The food intake of mice in each group was measured daily during the experiment.

## CC[C@H](C)[C@H](NC(=O)[C@H](CCCCN)NC(=O)[C@H](CCC(=O)O)NC(=O)[C@H](CCCCNC(=O)COCCOCCNC(=O)COCCOCCNC(=O)CC[C@H](NC(=O)CCCCCCCCCCCCCCCCCCC(=O)O)C(=O)O)NC(=O)[C@H](Cc1ccc(O)cc1)NC(=O)[C@@H](NC(=O)[C@H](CO)NC(=O)[C@H](Cc1ccc(O)cc1)NC(=O)[C@H](CC(=O)O)NC(=O)[C@H](CO)NC(=O)[C@@H](NC(=O)[C@H](Cc1ccccc1)NC(=O)[C@@H](NC(=O)CNC(=O)[C@H](CCC(=O)O)NC(=O)C(C)(C)NC(=O)[C@@H](N)Cc1ccc(O)cc1)[C@@H](C)O)[C@@H](C)O)[C@@H](C)CC)C(=O)N[C@@H](C)C(=O)N[C@@H](C)C(=O)N[C@@H](CCC(N)=O)C(=O)N[C@@H](CCC(=O)O)C(=O)N[C@@H](Cc1ccccc1)C(=O)N[C@H](C(=O)N[C@@H](CC(N)=O)C(=O)N[C@@H](Cc1c[nH]c2ccccc12)C(=O)N[C@@H](CC(C)C)C(=O)N[C@@H](CC(C)C)C(=O)N[C@@H](C)C(=O)NCC(=O)NCC(=O)N1CCC[C@H]1C(=O)N[C@@H](CO)C(=O)N[C@@H](CO)C(=O)NCC(=O)N[C@@H](C)C(=O)N1CCC[C@H]1C(=O)N1CCC[C@H]1C(=O)N1CCC[C@H]1C(=O)N[C@@H](CO)C(N)=O)C(C)C [Compound 18#] (H-Y[Aib]EGTFTSDYSIYK([AEEA-AEEA-γGlu-C20 diacid])EKIAAQEFVNWLLAGGPSSGAPPPS-NH2)
[1]
  EC50: 0.013 nM
[2]; 3 nmol/kg, 28 days after the administration
  cumulative food intake: 58.2 g
[2]; 3 nmol/kg, day 1 after administration
  daily food intake ration: 0.6 ± 0.1 g
[2]; 3 nmol/kg, day 1 after administration, listed as 18#
  daily food intake ration: 0.6 g
[2]; 3 nmol/kg, day 2 after administration
  daily food intake ration: 1.3 ± 0.5 g
[2]; 3 nmol/kg, day 3 after administration
  daily food intake ration: 2 ± 0.5 g
[2]; 3 nmol/kg, day 4 after administration
  daily food intake ration: 1.1 ± 0.4 g
[2]; 3 nmol/kg, day 5 after administration
  daily food intake ration: 2.2 ± 1.3 g
[2]; 3 nmol/kg, day 6 after administration
  daily food intake ration: 2.1 ± 1.1 g
[2]; 3 nmol/kg, day 7 after administration
  daily food intake ration: 1.1 ± 0.6 g
[2]; 3 nmol/kg, day 8 after administration
  daily food intake ration: 1.6 ± 0.6 g
[2]; 3 nmol/kg, day 9 after administration
  daily food intake ration: 2.5 ± 0.9 g
[2]; 3 nmol/kg, day 10 after administration
  daily food intake ration: 1.3 ± 0.6 g
[2]; 3 nmol/kg, day 11 after administration
  daily food intake ration: 2 ± 0.3 g
[2]; 3 nmol/kg, day 12 after administration
  daily food intake ration: 3 ± 1 g
[2]; 3 nmol/kg, day 13 after administration
  daily food intake ration: 1.8 ± 1 g
[2]; 3 nmol/kg, day 14 after administration
  daily food intake ration: 2.3 ± 1 g
[2]; 3 nmol/kg, day 15 after administration
  daily food intake ration: 2.9 ± 0.7 g
[2]; 3 nmol/kg, day 16 after administration
  daily food intake ration: 1.5 ± 0.7 g
[2]; 3 nmol/kg, day 17 after administration
  daily food intake ration: 2.2 ± 0.5 g
[2]; 3 nmol/kg, day 18 after administration
  daily food intake ration: 2.7 ± 0.3 g
[2]; 3 nmol/kg, day 19 after administration
  daily food intake ration: 1.7 ± 0.5 g
[2]; 3 nmol/kg, day 20 after administration
  daily food intake ration: 2.2 ± 0.5 g
[2]; 3 nmol/kg, day 21 after administration
  daily food intake ration: 3.4 ± 0.4 g
[2]; 3 nmol/kg, day 22 after administration
  daily food intake ration: 1.8 ± 0.5 g
[2]; 3 nmol/kg, day 23 after administration
  daily food intake ration: 2.6 ± 0.4 g
[2]; 3 nmol/kg, day 24 after administration
  daily food intake ration: 2.9 ± 0.5 g
[2]; 3 nmol/kg, day 25 after administration
  daily food intake ration: 1.8 ± 0.8 g
[2]; 3 nmol/kg, day 26 after administration
  daily food intake ration: 2.5 ± 0.9 g
[2]; 3 nmol/kg, day 27 after administration
  daily food intake ration: 3.9 ± 0.5 g
[2]; 3 nmol/kg, day 28 after administration
  daily food intake ration: 1.3 ± 0.6 g
[2]; 3 nmol/kg, within 5 days after the administration
  cumulative food intake: 7.2 g
[2]; 10 nmol/kg, 28 days after the administration
  cumulative food intake: 46.8 g
[2]; 10 nmol/kg, day 1 after administration
  daily food intake ration: 0.3 ± 0.2 g
[2]; 10 nmol/kg, day 1 after administration, listed as 18#
  daily food intake ration: 0.3 g
[2]; 10 nmol/kg, day 2 after administration
  daily food intake ration: 0.6 ± 0.6 g
[2]; 10 nmol/kg, day 3 after administration
  daily food intake ration: 1.1 ± 0.7 g
[2]; 10 nmol/kg, day 4 after administration
  daily food intake ration: 0.7 ± 0.5 g
[2]; 10 nmol/kg, day 5 after administration
  daily food intake ration: 1.1 ± 0.5 g
[2]; 10 nmol/kg, day 6 after administration
  daily food intake ration: 1.5 ± 0.8 g
[2]; 10 nmol/kg, day 7 after administration
  daily food intake ration: 0.8 ± 0.4 g
[2]; 10 nmol/kg, day 8 after administration
  daily food intake ration: 1.1 ± 0.7 g
[2]; 10 nmol/kg, day 9 after administration
  daily food intake ration: 2 ± 0.6 g
[2]; 10 nmol/kg, day 10 after administration
  daily food intake ration: 0.9 ± 0.4 g
[2]; 10 nmol/kg, day 11 after administration
  daily food intake ration: 1.8 ± 0.8 g
[2]; 10 nmol/kg, day 12 after administration
  daily food intake ration: 2.4 ± 0.6 g
[2]; 10 nmol/kg, day 13 after administration
  daily food intake ration: 0.9 ± 0.4 g
[2]; 10 nmol/kg, day 14 after administration
  daily food intake ration: 1.7 ± 0.7 g
[2]; 10 nmol/kg, day 15 after administration
  daily food intake ration: 3 ± 0.9 g
[2]; 10 nmol/kg, day 16 after administration
  daily food intake ration: 1.2 ± 1 g
[2]; 10 nmol/kg, day 17 after administration
  daily food intake ration: 2.1 ± 0.9 g
[2]; 10 nmol/kg, day 18 after administration
  daily food intake ration: 2.9 ± 0.8 g
[2]; 10 nmol/kg, day 19 after administration
  daily food intake ration: 1.3 ± 0.5 g
[2]; 10 nmol/kg, day 20 after administration
  daily food intake ration: 2 ± 0.5 g
[2]; 10 nmol/kg, day 21 after administration
  daily food intake ration: 3.2 ± 0.6 g
[2]; 10 nmol/kg, day 22 after administration
  daily food intake ration: 1 ± 0.4 g
[2]; 10 nmol/kg, day 23 after administration
  daily food intake ration: 2.3 ± 0.5 g
[2]; 10 nmol/kg, day 24 after administration
  daily food intake ration: 2.5 ± 0.6 g
[2]; 10 nmol/kg, day 25 after administration
  daily food intake ration: 1.6 ± 1.2 g
[2]; 10 nmol/kg, day 26 after administration
  daily food intake ration: 2.2 ± 0.8 g
[2]; 10 nmol/kg, day 27 after administration
  daily food intake ration: 3.6 ± 1^ g
[2]; 10 nmol/kg, day 28 after administration
  daily food intake ration: 1 ± 0.5 g
